ChEMBL document CHEMBL1147969, “Synthesis of some novel heterocyclic compounds derived from diflunisal hydrazide as potential anti-infective and anti-inflammatory agents” (2007)
Active and inactive are the calls of the source. The rule behind the calls is not given here.

System: Vaccinia virus
Assay: Antiviral activity against Vaccinia virus-induced cytopathogenicity at 16 ug/mL
Format: functional, organism-based
Conditions: Orthopoxvirus vaccinia

Compound: Cc1ccc(-n2c(-c3cc(-c4ccc(F)cc4F)ccc3O)n[nH]c2=S)cc1
- Activity: Active
